Reference: patent publication US6540792B1, “Cellulose fiber-containing structure” (priority 1999, dated 2003)

Test: Inorganic value/organic value ratio calculated by the organic concept (Fujita)
Settings: concluded from the inorganic value/organic value ratio
Source text: The “inorganic value/organic value ratio” in this invention is an indicator contrived by Minoru Fujita, to express the polarity of various organic compounds in view of organic concept [see Revised Edition, Science of Chemical Experiments, Organic Chemistry, Kawade shobo (1971)]. For the ratio, the organic value of one carbon (C) atom is decided as 20, and the inorganic and organic values of various polar groups are decided in reference to it, as shown in Table 1. The inorganic value/organic value ratio refers to the ratio of the sum of inorganic values to the sum of organic values.
According to this organic concept, for example, the inorganic value/organic value ratio of polyethylene terephthalate can be calculated as 0.7. In this invention, attention is paid to the affinity between synthetic fibers and an antimicrobial agent based on the value calculated according to the organic concept, and an antimicrobial agent with the inorganic value/organic value ratio kept in a predetermined range is caused to adhere to or to be exhausted and diffused into the synthetic fibers.
For example, in the case of 2,3,5,6-tetrachloro-4-hydroxypyridine, since it has one benzene nucleus, four —Cl groups, one —OH group and one —NR2 group, the inorganic value is 265. On the other hand, since it has five C (carbon) atoms and four —Cl groups, the organic value is 180. […]

[Na+].[O-][n+]1ccccc1[S-] [2-pyridylthiol-1-oxide sodium]
affinity to polyesters: poor
